Experimental data taken from patent US9586961B2, “Homopiperazine derivatives as protein tyrosine kinase inhibitors and pharmaceutical use thereof” (LEO PHARMA A/S, priority 2010, dated 2017).
pEC50: −log10 of the molar value.

Tests used:
Type in all cases: biochemical
JAK3 = molecular target: T1, JAK3 (Homo sapiens, UniProt P52333); test: JAK3 kinase assay (HTRF, inhibition of phosphorylation of a synthetic peptide); conditions: catalytic domain, His-tag; 2 μM ATP (Km); read-out: JAK3 kinase inhibitory activity (EC50)
T1 construct: All four purified enzymes contain only the catalytic domain; His (N); purchased Carna Biosciences, Inc; host or cells: baculovirus expression system
Method: (§1) JAK1, JAK2, JAK3 and TYK2 Kinase Assays:
(§2) Human baculovirus-expressed JAK1, 2, 3 and TYK2 were purchased from Carna Biosciences, Inc. All four purified enzymes contain only the catalytic domain. JAK1 (aa 850-1154) and TYK2 (aa 871-1187) are expressed with an N-terminally fused GST-tag, and JAK2 and JAK3 with an N-terminally fused His-tag. Inhibition of phosphorylation of a synthetic peptide was measured in an HTRF-based assay using the TK substrate-Biotin from the CisbioHTRFKinEASE TK kit. First, 2 μl of TK solution (TK substrate-biotin in kinase buffer [1× enzymatic buffer from HTRFKinEASE TK kit, 1 mM DTT]) is added to a plate containing 1 μl prediluted compound (final assay concentration DMSO: 0.75%). Then, 5 μl kinase-ATP mix (prepared in kinase buffer) is added to the wells and the plates are incubated at RT for 20-30 min. For all four kinases a concentration of ATP that corresponded to the Km for ATP was used. The final concentrations of buffers, substrate, kinase and ATP were: JAK1: 50 mMHepes buffer pH 7.0, 0.01% BSA, 10 mM MgCl2, 1 mM DTT, 7 μM ATP, 50 nMSEB, 1 μM TK Substrate-Biotin and 5 ng JAK1; JAK2: 50 mM Hepes buffer pH 7.0, 0.01% BSA, 5 mM MgCl2, 1 mM DTT, 4 μM ATP, 1 μM TK Substrate-Biotin and 0.1 ng JAK2; JAK3: 50 mMHepes buffer pH 7.0, 0.01% BSA, 5 mM MgCl2, 1 mM DTT, 2 μM ATP, 1 μM TK Substrate-Biotin and 0.3 ng JAK3; TYK2: 50 mMHepes buffer pH 7.0, 0.01% BSA, 5 mM MgCl2, 1 mM DTT, 13 μM ATP, 50 nMSEB, 1 μM TK Substrate-Biotin and 0.8 ng TYK2. Thereafter, the kinase reaction is stopped by adding 4 μl detection mix (final concentrations: 50 mM Hepes buffer pH 7.0, 0.01% BSA, 0.8 M KF, 20 mM EDTA, 42 nM Streptavidin-XL665 and 1:400 STKAbCryptate) and the plates are incubated overnight in the dark. The HTRF signal is read using an Envision plate reader.

JAK2 = molecular target: T2, JAK2 (Homo sapiens, UniProt O60674); test: JAK2 kinase assay (HTRF, inhibition of phosphorylation of a synthetic peptide); conditions: catalytic domain, His-tag; 4 μM ATP (Km); read-out: JAK2 kinase inhibitory activity (EC50)
T2 construct: All four purified enzymes contain only the catalytic domain; His (N); purchased Carna Biosciences, Inc; host or cells: baculovirus expression system
Method: as §1, §2

JAK1 = molecular target: T3, JAK1 (Homo sapiens, UniProt P23458); test: JAK1 kinase assay (HTRF, inhibition of phosphorylation of a synthetic peptide); conditions: catalytic domain aa 850-1154, GST-tag; 7 μM ATP (Km); read-out: JAK1 kinase inhibitory activity (EC50)
T3 construct: JAK1 (aa 850-1154) and TYK2 (aa 871-1187) are expressed with an N-terminally fused GST-tag; GST (N); purchased Carna Biosciences, Inc; host or cells: baculovirus expression system
Method: as §1, §2

T1 sequence (P52333 822-1111 limits assumed): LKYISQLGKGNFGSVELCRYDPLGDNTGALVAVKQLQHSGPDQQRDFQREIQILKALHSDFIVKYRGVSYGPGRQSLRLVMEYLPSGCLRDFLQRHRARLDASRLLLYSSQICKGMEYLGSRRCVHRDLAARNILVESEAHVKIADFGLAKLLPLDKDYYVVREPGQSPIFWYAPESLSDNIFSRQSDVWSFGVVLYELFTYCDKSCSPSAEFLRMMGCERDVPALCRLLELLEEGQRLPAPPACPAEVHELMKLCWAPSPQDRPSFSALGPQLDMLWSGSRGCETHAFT
T2 sequence (O60674 849-1124 limits assumed): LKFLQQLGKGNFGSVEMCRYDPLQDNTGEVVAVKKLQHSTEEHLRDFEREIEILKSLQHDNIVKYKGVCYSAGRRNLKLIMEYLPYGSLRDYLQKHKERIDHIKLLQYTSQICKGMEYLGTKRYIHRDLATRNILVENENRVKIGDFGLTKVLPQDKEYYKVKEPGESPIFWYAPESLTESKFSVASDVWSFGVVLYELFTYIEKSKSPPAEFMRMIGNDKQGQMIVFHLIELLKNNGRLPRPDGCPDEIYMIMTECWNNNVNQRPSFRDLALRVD
T3 sequence (P23458 850-1154): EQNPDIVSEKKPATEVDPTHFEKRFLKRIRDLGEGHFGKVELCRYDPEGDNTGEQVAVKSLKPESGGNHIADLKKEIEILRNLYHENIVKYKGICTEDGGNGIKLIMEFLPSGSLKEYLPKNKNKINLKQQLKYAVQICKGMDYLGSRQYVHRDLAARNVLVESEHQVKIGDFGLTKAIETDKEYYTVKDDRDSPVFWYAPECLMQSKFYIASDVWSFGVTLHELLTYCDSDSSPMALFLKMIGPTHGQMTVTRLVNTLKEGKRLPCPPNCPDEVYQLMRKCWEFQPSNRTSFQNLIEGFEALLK

Row | SMILES | pEC50 (JAK3) | pEC50 (JAK2) | pEC50 (JAK1)
1 | O=C(c1nc[nH]n1)N1CCCN(c2ncnc3[nH]ccc23)CC12CC2 [Example 228, [5-(7H-pyrrolo[2,3-d]pyrimidin-4-yl)-5,9-diazaspiro[2.6]nonan-9-yl]-(1H-1,2,4-triazol-3-yl)methanone] | < 6.00 | 6.00 to 7.00 | 6.00 to 7.00
2 | Cc1nc(C)c(CC(=O)N2CCCN(c3ncnc4[nH]ccc34)CC23CC3)s1 [Example 140, 2-(2,4-dimethylthiazol-5-yl)-1-[5-(7H-pyrrolo[2,3-d]pyrimidin-4-yl)-5,9-diazaspiro[2.6]nonan-9-yl]ethanone] | < 6.00 | < 6.00 | < 6.00
3 | CC(=O)Nc1ccc(CC(=O)N2CCN(c3ncnc4[nH]ccc34)CC3(CC3)C2)cc1 [Example 276] | < 6.00 | 6.00 to 7.00 | 6.00 to 7.00
4 | O=C(Cc1ccccc1Cl)N1CCCN(c2ncnc3[nH]ccc23)CC12CC2 [Example 174, 2-(2-chlorophenyl)-1-[5-(7H-pyrrolo[2,3-d]pyrimidin-4-yl)-5,9-diazaspiro[2.6]nonan-9-yl]ethanone] | < 6.00 | 6.00 to 7.00 | 6.00 to 7.00
5 | Cc1ccncc1C(=O)N1CCCN(c2ncnc3[nH]ccc23)CC12CC2 [Example 151, (4-methyl-3-pyridyl)-[5-(7H-pyrrolo[2,3-d]pyrimidin-4-yl)-5,9-diazaspiro[2.6]nonan-9-yl]methanone] | < 6.00 | 6.00 to 7.00 | 6.00 to 7.00
6 | O=C(c1nc[nH]n1)N1CCN(c2ncnc3[nH]ccc23)CC2(CC2)C1 [Example 195, [5-(7H-pyrrolo[2,3-d]pyrimidin-4-yl)-5,8-diazaspiro[2.6]nonan-8-yl]-(1H-1,2,4-triazol-3-yl)methanone] | < 6.00 | 6.00 to 7.00 | 6.00 to 7.00
7 | Cc1cnc(C(=O)N2CCCN(c3ncnc4[nH]ccc34)CC23CC3)cn1 [Example 197, (5-methylpyrazin-2-yl)-[5-(7H-pyrrolo[2,3-d]pyrimidin-4-yl)-5,9-diazaspiro[2.6]nonan-9-yl]methanone] | < 6.00 | 6.00 to 7.00 | 6.00 to 7.00
8 | Cc1cc(C(=O)N2CCCN(c3ncnc4[nH]ccc34)CC23CC3)n(C)n1 [Example 193, (2,5-dimethylpyrazol-3-yl)-[5-(7H-pyrrolo[2,3-d]pyrimidin-4-yl)-5,9-diazaspiro[2.6]nonan-9-yl]methanone] | < 6.00 | > 7.00 | 6.00 to 7.00
9 | O=C(c1ccccn1)N1CCCN(c2ncnc3[nH]ccc23)CC12CC2 [Example 189, 2-pyridyl-[5-(7H-pyrrolo[2,3-d]pyrimidin-4-yl)-5,9-diazaspiro[2.6]nonan-9-yl]methanone] | < 6.00 | > 7.00 | 6.00 to 7.00
10 | O=C(Cc1nnn[nH]1)N1CCCN(c2ncnc3[nH]ccc23)CC12CC2 [Example 226, 1-[5-(7H-pyrrolo[2,3-d]pyrimidin-4-yl)-5,9-diazaspiro[2.6]nonan-9-yl]-2-(1H-tetrazol-5-yl)ethanone] | < 6.00 | 6.00 to 7.00 | < 6.00
11 | Cc1cc(CC(=O)N2CCCN(c3ncnc4[nH]ccc34)CC23CC3)on1 [Example 217, 2-(3-methylisoxazol-5-yl)-1-[5-(7H-pyrrolo[2,3-d]pyrimidin-4-yl)-5,9-diazaspiro[2.6]nonan-9-yl]ethanone] | < 6.00 | 6.00 to 7.00 | 6.00 to 7.00
12 | Cn1cc(CC(=O)N2CCN(c3ncnc4[nH]ccc34)CC3(CC3)C2)cn1 [Example 253, 2-(1-methylpyrazol-4-yl)-1-[5-(7H-pyrrolo[2,3-d]pyrimidin-4-yl)-5,8-diazaspiro[2.6]nonan-8-yl]ethanone] | < 6.00 | 6.00 to 7.00 | 6.00 to 7.00
13 | CC(C(=O)N1CCN(c2ncnc3[nH]ccc23)CC2(CC2)C1)c1ccccc1 (stereo not drawn) [Example 275, 2-phenyl-1-[5-(7H-pyrrolo[2,3-d]pyrimidin-4-yl)-5,8-diazaspiro[2.6]nonan-8-yl]propan-1-one] | 6.00 to 7.00 | > 7.00 | 6.00 to 7.00
14 | O=C(c1n[nH]c(Cl)n1)N1CCCN(c2ncnc3[nH]ccc23)CC12CC2 [Example 232, (5-chloro-1H-1,2,4-triazol-3-yl)-[5-(7H-pyrrolo[2,3-d]pyrimidin-4-yl)-5,9-diazaspiro[2.6]nonan-9-yl]methanone] | 6.00 to 7.00 | > 7.00 | 6.00 to 7.00

Next, values leading:

Row | pEC50 (JAK3) | pEC50 (JAK2) | pEC50 (JAK1) | SMILES
15 | 6.00 to 7.00 | 6.00 to 7.00 | 6.00 to 7.00 | CC(C)N(C)C(=O)N1CCN(c2ncnc3[nH]ccc23)CC2(CC2)C1 [Example 223, N-isopropyl-N-methyl-5-(7H-pyrrolo[2,3-d]pyrimidin-4-yl)-5,8-diazaspiro[2.6]nonane-8-carboxamide]
16 | 6.00 to 7.00 | > 7.00 | > 7.00 | O=C(Cc1nnn[nH]1)N1CCN(c2ncnc3[nH]ccc23)CC2(CC2)C1 [Example 215, 1-[5-(7H-pyrrolo[2,3-d]pyrimidin-4-yl)-5,8-diazaspiro[2.6]nonan-8-yl]-2-(1H-tetrazol-5-yl)ethanone]
17 | 6.00 to 7.00 | > 7.00 | 6.00 to 7.00 | N#C[C@H]1CCCN1C(=O)N1CCN(c2ncnc3[nH]ccc23)CC2(CC2)C1 [Example 221, (2R)-1-[5-(7H-pyrrolo[2,3-d]pyrimidin-4-yl)-5,8-diazaspiro[2.6]nonane-8-carbonyl]pyrrolidine-2-carbonitrile]
18 | 6.00 to 7.00 | 6.00 to 7.00 | 6.00 to 7.00 | O=C1CCC(=O)N1CC(=O)N1CCCN(c2ncnc3[nH]ccc23)CC12CC2 [Example 84, 1-[2-oxo-2-[5-(7H-pyrrolo[2,3-d]pyrimidin-4-yl)-5,9-diazaspiro[2.6]nonan-9-yl]ethyl]pyrrolidine-2,5-dione]
19 | 6.00 to 7.00 | 6.00 to 7.00 | 6.00 to 7.00 | O=C(c1cncc(F)c1)N1CCCN(c2ncnc3[nH]ccc23)CC12CC2 [Example 214, (5-fluoro-3-pyridyl)-[5-(7H-pyrrolo[2,3-d]pyrimidin-4-yl)-5,9-diazaspiro[2.6]nonan-9-yl]methanone]
20 | 6.00 to 7.00 | > 7.00 | > 7.00 | Cc1cc(C(=O)N2CCCN(c3ncnc4[nH]ccc34)CC23CC3)on1 [Example 122, (3-methylisoxazol-5-yl)-[5-(7H-pyrrolo[2,3-d]pyrimidin-4-yl)-5,9-diazaspiro[2.6]nonan-9-yl]methanone]
21 | 6.00 to 7.00 | 6.00 to 7.00 | 6.00 to 7.00 | O=C(c1cnco1)N1CCN(c2ncnc3[nH]ccc23)CC2(CC2)C1 [Example 155, oxazol-5-yl-[5-(7H-pyrrolo[2,3-d]pyrimidin-4-yl)-5,8-diazaspiro[2.6]nonan-8-yl]methanone]
22 | 6.00 to 7.00 | 6.00 to 7.00 | 6.00 to 7.00 | O=C(c1ccc(O)nc1)N1CCN(c2ncnc3[nH]ccc23)CC2(CC2)C1 [Example 131, (6-hydroxy-3-pyridyl)-[5-(7H-pyrrolo[2,3-d]pyrimidin-4-yl)-5,8-diazaspiro[2.6]nonan-8-yl]methanone]
23 | 6.00 to 7.00 | > 7.00 | 6.00 to 7.00 | N#C[C@@H]1CCCN1C(=O)N1CCN(c2ncnc3[nH]ccc23)CC2(CC2)C1 [Example 222, (2S)-1-[5-(7H-pyrrolo[2,3-d]pyrimidin-4-yl)-5,8-diazaspiro[2.6]nonane-8-carbonyl]pyrrolidine-2-carbonitrile]
